Results as given in US11083714B2, “Selective anti-cancer agent effective for prevention and treatment” (Molecular International Research, Inc., priority 2018, dated 2021).
Entries after “also recorded” stand apart in the source; their conditions may differ. Read-outs that look alike come from different tables or passages of the source.

Tests used:
[1] = system: MIA PaCa, PANC-1, AsPc, BxPc; assay: Growth inhibition, gemcitabine alone or plus de-ethylflavopereirine; assay type: cell-based; settings: four pancreatic cancer cell lines
LnCap = assay: Cell Proliferation (anti-cancer), LnCap; assay type: cell-based, human
Experimental: (§1) The primary goal of synthesizing de-ethylflavopereirine (compound 13-9-1) was to generate a different compound that still retains the anti-cancer cell activity of flavopereirine (compound 13-7-2). Comparison of the effects of the two compounds on proliferation of a variety of cancer cells confirmed that this goal was achieved. For example, the effect of de-ethylflavopereirine on two human breast cancer cell lines and two human prostate cancer cell lines were analyzed.

RPWE-1 = assay: Cell Proliferation (anti-cancer), RPWE-1; assay type: cell-based, human
Experimental: as §1

[2] = assay type: in vivo; settings: for time of death of one mouse: male, scid/scid, beige/beige, 48 hr
Experimental: A study with synthetic compounds 13-7-2 (flavopereirine) and 13-9-1 (de-ethylflavopereirine) was conducted to compare the toxicity of the two compounds in animals. The compounds were dissolved in phosphate buffered saline for administration. Both compounds were injected IP in male immunodeficient (homozygous recessive scid/scid, beige/beige) mice.
Compound 13-7-2 was injected at a dose of 100 mg/kg, 150 mg/kg, and 200 mg/kg in mice divided in groups of two. […] One mouse injected with 150 mg/kg died at 6 hr whereas one mouse injected with 200 mg/kg dose died at 24 hr. One mouse injected with 100 mg/kg dose died at 48 hr.
Compound 13-9-1 was injected at a dose of 100 mg/kg, 150 mg/kg, and 200 mg/kg in mice divided in groups of two.

[3] = mouse, in vivo
Experimental: To estimate the maximum tolerated dose of compounds 13-7-2 and 13-9-1 in mice, both compounds were dissolved in PBS and given to SCID mice by oral gavage.
Compound 13-7-2 was administered at a dose of 100 mg/kg, 150 mg/kg, or 200 mg/kg. Each dose group consisted of three mice.
Compound 13-9-1 was administered at a dose of 100 mg/kg, 150 mg/kg, or 200 mg/kg by oral gavage (three mice per dose group).
In a separate dose finding/toxicity test with compound 13-9-1, three mice received escalating doses of 50 mg/kg/day for 3 days, 100 mg/kg/day for 7 days, 200 mg/kg/day for 7 days, and 300 mg/kg/day for 3 days, given by oral gavage. Mice were monitored closely for toxic signs.

[4] = Homo sapiens, after any period of treatment, read-out: Minimum Dose (IC50) needed to decrease growth 50% or greater versus control

SMILES | response of the cell lines to the drug alone [1] | Growth Inhibition (LnCap) | IC50 (LnCap; [4]) | Growth Inhibition (RPWE-1) | IC50 (RPWE-1; [4]) | mice that died after IP injection ([2]; all doses tested (100, 150, 200 mg/kg)) | time of death of one mouse ([2]; mouse, in vivo, ip, 100 mg/kg) | time of death of one mouse ([2]; mouse, in vivo, ip, 150 mg/kg) | time of death of one mouse ([2]; mouse, in vivo, ip, 200 mg/kg) | adverse effects observed ([2]; mouse, in vivo, ip, 100 mg/kg) | tolerated dose, oral administration ([3]; SCID) | adverse effects observed ([3]; SCID, po, 100 mg/kg, 48 hr) | deaths ([3]; SCID, po, 150 mg/kg, 48 hr) | deaths ([3]; SCID, po, 200 mg/kg, 48 hr) | signs of distress ([3]; po, 200 mg/kg)
Nc1ccn([C@@H]2O[C@H](CO)[C@@H](O)C2(F)F)c(=O)n1 [gemcitabine] | all four of the pancreatic cancer cell lines are resistant; also recorded: some resistance |  |  |  |  |  |  |  |  |  |  |  |  |  | 
CCc1ccc2c3[nH]c4ccccc4c3cc[n+]2c1 [Compound 13-7-2, flavopereirine] |  | Yes | 10 µM | Yes | 10 µM | 50% | 48 h | 6 h | 24 h | swollen abdomen | up to 100 mg/kg | No signs of distress were observed in the 100 mg/kg group of mice with the exception of bradycardia 15 min after the administration of the compound in one mouse | two mice died 15 min after administration of the compound and one mouse died 48 hr after administration of the compound | One mouse from this group died 24 hr after the administration of the compound | two mice exhibited signs of distress which included rapid breathing, bradycardia, shut eyes, and lethargy
